# Laboratory results as given in publication PMC5861220, “The Cytochrome P450-Mediated Metabolism Alternation of Four Effective Lignans From Schisandra chinensis in Carbon Tetrachloride-Intoxicated Rats and Patients With Advanced Hepatocellular Carcinoma” (Frontiers in Pharmacology, 2018).
# Read-outs that look alike come from different tables or passages of the source.
# What was measured:
# [1] = tested on: acute liver injury (ALI) rats; experiment: Biochemical indexes of liver and renal functions in CCl4-intoxicated (ALI) rats; type: in vivo, rat
# Protocol: Male Sprague-Dawley rats, weighing 180–220 g, were obtained from Beijing Vital River Experimental Animal Co., Ltd. The animals were quarantined for 1 week prior to study and maintained on a 12-h light/12-h dark cycle at 22 ± 1°C and at 50–55% relative humidity with free access to solid pellet diet and water ad libitum throughout the study. All rats were assigned randomly to three groups, including acute liver injury (ALI) rat, SC-treated ALI rat and the control, 5 in each group. The ALI and SC-treated ALI rats were intraperitoneal injected two doses of the mixture of CCl4 and olive oil (1:1, V/V) at 2 mL/kg in a 24 h time interval (Huang et al., [2001]), while the control group was given the same volume of olive oil. Then, the SC-treated ALI rat was orally dosed with SC alcoholic extract suspended in 0.5% sodium carboxymethyl cellulose (CMC) at 1.5 g/kg/day for 4 days after CCl4 injection. The dosages were set according to the amounts of the four active lignans used previously for pharmacological studies and their contents in the extract (Chiu et al., [2002], [2007]; Cheng et al., [2013]). All animal protocols were approved by the Animal Care and Welfare Committee of the Academy of Military Medical Sciences. All animal procedures complied with the Guide for the Care and Use of Laboratory Animals issued by Beijing Association on Laboratory Animal Care (BALAC).
# Serum aspartate transaminase (AST), alanine transaminase (ALT), alkaline phosphatase (ALP), lactate dehydrogenase (LDH), total bilirubin, blood urea nitrogen (BUN), and creatinine (CRE) levels were determined with commercial kits (Nanjing Jiancheng Bioengineering Institute, China).
# [2] = Transport across Caco-2 cell monolayer; type: in vitro ADME; details: human, 5 μM
# Protocol: Caco-2 cell (passage 38) was used in the transport experiments. Cells were seeded on polycarbonate filters (12 mm diameter, pore size […]) at 1 × 10^5/cm^2. The cell monolayer was formed 21 days post seeding when the transepithelial electrical resistance (TEER) was above 1,000 Ω• cm^2. Three concentration levels (5, 10, and 50 μM) were set for the four schisandra lignans in the study. After preincubation for 1 h at 37°C, the solution of the four lignans was respectively added to the apical (0.4 mL) or basolateral (0.6 mL) chamber for absorptive (AP → BL) and secretive (BL → AP) permeability test. At the specified timepoints (0.5, 1, 1.5 and 2 h), 50 μL samples (n = 3) were withdrawn from receiver chamber, and meanwhile, 50 μL fresh buffer was added. The four lignans were determined by HPLC-MS method.
# The efflux rate (ER) was calculated by the formula ER = Papp (BL → AP)/Papp(AP → BL).
# [3] = ALI rat intoxicated with CCl4 vs control rats
# [4] = CCl4-intoxicated rats vs control
# [5] = Caco-2, ER = Papp (BL → AP)/Papp(AP → BL)
# [6] = Caco-2, with PSC833 (concentration not stated), + PSC833
compound,measurement,setting,value
"ClC(Cl)(Cl)Cl [CCl4, carbon tetrachloride]",Decrease of content of liver microsomal CYP450 enzyme,[1]; [3],54%
same,Increase of BUN,[1]; [3],30%
same,Increase of liver index,[1]; [3],40%
same,Increase of serum ALT,[1]; [3],720%
same,Increase of serum AST,[1]; [3],30%
same,BUN,[1]; CCl4-intoxicated rats,18.3 ± 1.2 mg/dL
same,CRE,[1]; CCl4-intoxicated rats,0.8 ± 0.1 mg/dL
same,Serum ALT increase,[1]; [4],8.2 folds
same,Serum AST increase,[1]; [4],1.3 folds
same,Liver index,"[1]; CCl4-intoxicated rats, CCl4:olive oil (1:1) 2 mL/kg i.p., two doses",38 ± 5 g/kg
same,Liver P450,"[1]; CCl4-intoxicated rats, liver microsomal CYP450 content",0.27 ± 0.12 nmol/mg
same,ALP,"[1]; CCl4-intoxicated rats, serum",8.15 ± 0.09 IU/L
same,ALT,"[1]; CCl4-intoxicated rats, serum",329 ± 49 IU/L
same,AST,"[1]; CCl4-intoxicated rats, serum",268 ± 49 IU/L
same,LDH,"[1]; CCl4-intoxicated rats, serum",605 ± 168 IU/L
same,TB,"[1]; CCl4-intoxicated rats, total bilirubin",0.09 ± 0.02 mg/dL
"CC(C)NCC(O)COc1cccc2ccccc12 (stereo not shown) [Propranolol, propranolol, reference compound]","Papp A→B at 2 h, 5 μM",[2]; Caco-2,32.9 ± 6.03 ×10⁻⁶ cm/s
same,"Papp B→A at 2 h, 5 μM",[2]; Caco-2,24.6 ± 1.8 ×10⁻⁶ cm/s
same,"efflux ratio at 2 h, 5 μM",[2]; [5],0.75
"C[C@H]1O[C@@H](O[C@H]2[C@@H](O)C[C@H](O[C@H]3[C@@H](O)C[C@H](O[C@H]4CC[C@@]5(C)[C@H](CC[C@@H]6[C@@H]5C[C@@H](O)[C@]5(C)[C@@H](C7=CC(=O)OC7)CC[C@]65O)C4)O[C@@H]3C)O[C@@H]2C)C[C@H](O)[C@@H]1O [Digoxin, digoxin, reference compound]","Papp A→B at 2 h, 5 μM",[2]; [6],1.46 ± 0.24 ×10⁻⁶ cm/s
same,"Papp B→A at 2 h, 5 μM",[2]; [6],2.38 ± 0.58 ×10⁻⁶ cm/s
same,"efflux ratio at 2 h, 5 μM","[2]; Caco-2, with PSC833 (concentration not stated), + PSC833, read-out: ER",1.63
same,"Papp A→B at 2 h, 5 μM",[2]; Caco-2,3.29 ± 4.02 ×10⁻⁶ cm/s
same,"Papp B→A at 2 h, 5 μM",[2]; Caco-2,11.6 ± 0.82 ×10⁻⁶ cm/s
same,"efflux ratio at 2 h, 5 μM",[2]; [5],3.53
